{"source": "patent US12383196B2", "about": "“Treatment of depression using machine learning” (The Board of Trustees of the Leland Stanford Junior …, priority 2018, dated 2025)", "tested_on": "medication-free depressed outpatients", "experiment": "EMBARC placebo-controlled randomized clinical trial, treatment response on HAMD17", "assay_type": "in vivo, human", "conditions": "for response rate (≥50% reduction in symptoms): sertraline arm, 8 weeks, 50-200 mg", "description": "Data were drawn from four studies. Establishment of the treatment-predictive rsEEG signature was accomplished with data from the Establishing Moderators and Biosignatures of Antidepressant Response in Clinic Care (EMBARC) study^21. EMBARC is the largest neuroimaging-coupled placebo-controlled randomized clinical trial (RCT) in depression to date and involved randomization of 309 medication-free depressed outpatients to receive either the selective serotonin reuptake inhibitor (SSRI) sertraline or placebo for eight weeks (FIG. 8). Of these, 228 had high-quality rsEEG data. We then compared the predictive utility of this algorithm against conventional machine learning approaches on the EEG data as well as a predictive model built on clinical data alone. The generalizability of the antidepressant-predictive signature was then tested in a second independent sample of depressed patients (N=72), for whom we had historical information about treatment response during the current depressive episode. A third independent sample of depressed patients (N=24) was used to assess two features of the treatment-predictive rsEEG signature: convergent validity and neurobiological significance. […] We also tested in the third sample whether regions that were prominent in the rsEEG signature reflected individual differences in cortical responsivity, as directly assessed through single pulse transcranial magnetic stimulation (TMS) during concurrent EEG recording. […]\nTo simply visualize how the SELSER predictions in FIG. 2A could be used for treatment stratification, we partitioned the patients in each arm by applying an arbitrary median split on the cross-validated predicted HAMD17 score changes derived from the sertraline alpha REO model. We then calculated the rates of treatment response (≥50% reduction in symptoms) for the portion of patients above the median (“high”) and below the median (“low”), respectively, based on the model-predicted HAMD17 change scores (FIG. 2E). […]", "data": [{"compound": "CN[C@H]1CC[C@@H](c2ccc(Cl)c(Cl)c2)c2ccccc21", "note": "[sertraline]", "values": [{"measurement": "efficacy versus placebo", "setting": "only for patients at the higher range of predicted HAMD17 score changes", "result": "superior to placebo"}, {"measurement": "response rate (≥50% reduction in symptoms)", "setting": "high group (above median of cross-validated predicted HAMD17 score change, sertraline alpha REO model)", "result": 65, "unit": "%"}, {"measurement": "response rate (≥50% reduction in symptoms)", "setting": "low group (below median of cross-validated predicted HAMD17 score change, sertraline alpha REO model)", "result": 20, "unit": "%"}]}]}
